In patent publication US8703776B2 (Cymabay Therapeutics, Inc., priority 2011, dated 2014):

Assays:
[1] = tested on: Glucagon-like peptide-2 (GLP-2); assay: Total GLP-2 secretion at end of OGTT in DIO mice; assay type: in vivo; conditions: C57BL/6J DIO mice, 100 mg/kg oral; total GLP-2, 2 hours post glucose dosing
Procedure: (§1) 18 week old C57BL/6J diet induced obese (DIO) male mice were maintained on a 60 kcal % fat diet. Mice fasted for 9 hours were randomized into groups (n=9-10) to receive vehicle (1% CMC, 2% TWEEN 80) or test compound at a dose of 100 mg/kg. Compounds were delivered orally via gavage, and 30 minutes later mice were dosed orally with 2 g/kg glucose.
(§2) The effect of GPR131 agonists on the secretion of total Glucagon-like peptide-2 (GLP-2) and total Peptide YY (PYY) was determined at the end of the oral glucose tolerance test (2 hours post glucose dosing). Animals were anesthetized with pentobarbital and blood collected by heart puncture in potassium EDTA-coated microtainer tubes containing 10 μl/ml DPP-IV inhibitor and 500 KIU/ml Aprotinin. Total GLP-2 was measured using Total Glucagon-like peptide-2 assay kit and Total PYY was measured using Total Peptide YY assay kit.

human GPR131 = target: T1, human GPR131 (Homo sapiens, UniProt Q8TDU6); assay: Stimulation of cAMP in stable cell line expressing human GPR131 (FRET cAMP kit); assay type: cell-based; conditions: 0.5 h; 1.1 μM compound, relative to maximal stimulatory activity of lithocholic acid at 3.3 μM; 30 minutes at 37° C.; read-out: Percent Activity @ 1.1 μM (of 3.3 uM LCA) (%)
T1 construct: expressed in transfected cells
T1 sequence (Q8TDU6 1-330): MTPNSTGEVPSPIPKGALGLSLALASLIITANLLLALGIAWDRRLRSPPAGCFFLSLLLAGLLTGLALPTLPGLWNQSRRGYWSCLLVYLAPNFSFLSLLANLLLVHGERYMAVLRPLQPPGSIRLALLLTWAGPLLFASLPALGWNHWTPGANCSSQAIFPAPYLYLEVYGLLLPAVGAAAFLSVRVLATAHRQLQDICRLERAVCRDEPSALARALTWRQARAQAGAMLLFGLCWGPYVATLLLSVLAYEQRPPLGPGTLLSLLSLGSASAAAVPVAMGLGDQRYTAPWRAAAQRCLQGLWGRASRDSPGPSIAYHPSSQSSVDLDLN
In short: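 Stable human GPR131 cells in DMEM/F12 with 1 mM IBMX treated with compound for 30 min at 37° C. Intracellular cAMP measured by competitive FRET immunoassay (665/620 nm ratio). Values given as % activity at 1.1 μM compound relative to maximal lithocholic acid stimulation at 3.3 μM.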

Peptide YY (PYY) = assay: Total PYY secretion at end of OGTT in DIO mice; assay type: in vivo; conditions: C57BL/6J DIO mice, 100 mg/kg oral, 2 hours post glucose dosing
Procedure: as §1, §2

[2] = tested on: Glucagon-like peptide-1 (GLP-1); assay: Total GLP-1 secretion at end of oral glucose tolerance test; assay type: in vivo; conditions: C57/6N mice, 100 mg/kg oral; total GLP-1 at end of OGTT vs. control animals
Procedure: The effect of test compounds on the secretion of Glucagon-like peptide-1 (GLP-1) in C57/6N mice was determined at the end of the oral glucose tolerance test. Animals were anesthetized with pentobarbital and blood collected by heart puncture in potassium EDTA-coated microtainer tubes containing 10 μl/ml DPP-IV inhibitor and 500 KIU/ml Aprotinin. Total GLP-1 was measured using Mouse/Rat Total Glucagon-like peptide-1 assay kit (Meso Scale Discovery) and MSD SECTOR2400 Imager according to the manufacturer's instructions.
(§3) Oral glucose tolerance is expressed as a percent reduction in glucose excursion of animals receiving test compound vs. control animals. Incretin activity (i.e. incretin secretion) is expressed as an x-fold increase in GLP-1 production in animals receiving test compound vs. control animals.

[3] = Oral glucose tolerance test in C57BL/6N mice; assay type: in vivo; conditions: 100 mg/kg oral, 3 g/kg glucose, percent reduction in glucose excursion (AUC 0-120 min) vs. control animals
Procedure: Male mice (8-10 week old C57BL/6N, Harlan Laboratories, Inc.) were maintained on 18% Protein Rodent diet (Teklad Global Diets, Harlan Laboratories, Inc). Overnight fasted mice were randomized into groups (n=8-10) to receive the test compounds at a dose of 100 mg/kg or the vehicle (1% CMC, 2% TWEEN 80). Compounds were delivered orally via gavage. Blood glucose levels were measured by glucometer before administration of compounds and at 30 minutes post compound. The mice were then dosed orally with 3 g/kg glucose. Blood glucose measurements were taken 20, 40, 60, 90 and 120 minutes after glucose administration. Glucose levels were plotted against time and the incremental area under the curve (AUC) of the glucose excursion was determined from T=0 to T=120 min.
as §3

Cc1cc(CN(C)C(=O)c2cnc(SCc3c(F)ccc(F)c3F)n2-c2ccc(F)cc2)ccn1 [Compound 577, 1-(4-Fluorophenyl)-N-methyl-N-((2-methylpyridin-4-yl)methyl)-2-((2,3,6-trifluorobenzyl)thio)-1H-imidazole-5-carboxamide]
Increase in GLP-2 (Fold) [1]: 2.5 Fold
activation at 1.1 µM (human GPR131): 100%
Increase in PYY (Fold) (Peptide YY (PYY)): 2.2 Fold
Increase in GLP-1 (Fold) [2]: 4.1 Fold
Glucose Reduction (%) [3]: 24.4%
